Measured values reported in PubChem BioAssay (NCI).
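Each compound was tested at five concentrations against cells in 96-well plates for 48 hours. TGI is the concentration that stops growth completely.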

Assays:
Assay in all cases: NCI tumour cell line growth inhibition, 48 h
HL-60(TB) leukemia = system: HL-60(TB) leukemia
HOP-62 NSCLC = system: HOP-62 NSCLC
NCI-H226 lung = system: NCI-H226 lung
EKVX NSCLC = system: EKVX NSCLC
CCRF-CEM leukemia = system: CCRF-CEM leukemia
DU-145 prostate = system: DU-145 prostate
IGROV1 ovarian = system: IGROV1 ovarian
A498 renal = system: A498 renal
HCC-2998 colon = system: HCC-2998 colon
OVCAR-4 ovarian = system: OVCAR-4 ovarian
ACHN renal = system: ACHN renal
RPMI-8226 leukemia = system: RPMI-8226 leukemia
COLO 205 colon = system: COLO 205 colon
HCT-116 colon = system: HCT-116 colon
UACC-257 melanoma = system: UACC-257 melanoma
SK-MEL-2 melanoma = system: SK-MEL-2 melanoma
MDA-N = system: MDA-N
MDA-MB-435 = system: MDA-MB-435
OVCAR-8 ovarian = system: OVCAR-8 ovarian
M14 melanoma = system: M14 melanoma
U251 CNS = system: U251 CNS
SNB-75 CNS = system: SNB-75 CNS
OVCAR-3 ovarian = system: OVCAR-3 ovarian
NCI-H23 lung = system: NCI-H23 lung
SW-620 colon = system: SW-620 colon
TK-10 renal = system: TK-10 renal
MDA-MB-231 breast = system: MDA-MB-231 breast
HS 578T breast = system: HS 578T breast
SK-OV-3 ovarian = system: SK-OV-3 ovarian
MCF7 breast = system: MCF7 breast
SF-295 CNS = system: SF-295 CNS
CAKI-1 renal = system: CAKI-1 renal
MALME-3M melanoma = system: MALME-3M melanoma
KM12 colon = system: KM12 colon
PC-3 prostate = system: PC-3 prostate
T-47D breast = system: T-47D breast
SNB-19 CNS = system: SNB-19 CNS
NCI/ADR-RES ovarian = system: NCI/ADR-RES ovarian
786-0 renal = system: 786-0 renal
SF-268 CNS = system: SF-268 CNS
UO-31 renal = system: UO-31 renal
NCI-H522 lung = system: NCI-H522 lung
BT-549 breast = system: BT-549 breast
OVCAR-5 ovarian = system: OVCAR-5 ovarian
SN12C renal = system: SN12C renal
HT29 colon = system: HT29 colon
LOX IMVI melanoma = system: LOX IMVI melanoma
NCI-H460 lung = system: NCI-H460 lung
SK-MEL-28 melanoma = system: SK-MEL-28 melanoma
A549 NSCLC = system: A549 NSCLC
SK-MEL-5 melanoma = system: SK-MEL-5 melanoma
HCT-15 colon = system: HCT-15 colon
HOP-92 NSCLC = system: HOP-92 NSCLC
UACC-62 melanoma = system: UACC-62 melanoma
MOLT-4 leukemia = system: MOLT-4 leukemia
SF-539 CNS = system: SF-539 CNS
SR leukemia = system: SR leukemia
K-562 leukemia = system: K-562 leukemia
RXF 393 renal = system: RXF 393 renal

## Fc1ccc(C(OCCN2CC3CC2CN3CCCc2ccccc2)c2ccc(F)cc2)cc1 (stereo not drawn)
HL-60(TB) leukemia
  TGI: 12.3 µM
HOP-62 NSCLC
  TGI: 29.1 µM
NCI-H226 lung
  TGI: 23.9 µM
EKVX NSCLC
  TGI: 18.5 µM
CCRF-CEM leukemia
  TGI: 21.7 µM
DU-145 prostate
  TGI: 24.3 µM
IGROV1 ovarian
  TGI: 22.7 µM
A498 renal
  TGI: 18.3 µM
HCC-2998 colon
  TGI: 5.7 µM
OVCAR-4 ovarian
  TGI: 25.8 µM
ACHN renal
  TGI: 23.7 µM
RPMI-8226 leukemia
  TGI: 6.54 µM
COLO 205 colon
  TGI: 3.11 µM
HCT-116 colon
  TGI: 18.5 µM
UACC-257 melanoma
  TGI: 12.7 µM
SK-MEL-2 melanoma
  TGI: 21.8 µM
MDA-N
  TGI: 19 µM
MDA-MB-435
  TGI: 20.5 µM
OVCAR-8 ovarian
  TGI: 10.1 µM
M14 melanoma
  TGI: 3.79 µM
U251 CNS
  TGI: 19.5 µM
SNB-75 CNS
  TGI: 7.2 µM
OVCAR-3 ovarian
  TGI: 25.5 µM
NCI-H23 lung
  TGI: 23.8 µM
SW-620 colon
  TGI: 24.1 µM
TK-10 renal
  TGI: 23.7 µM
MDA-MB-231 breast
  TGI: 15.7 µM
HS 578T breast
  TGI: 25.8 µM
SK-OV-3 ovarian
  TGI: 31.7 µM
MCF7 breast
  TGI: 18.8 µM
SF-295 CNS
  TGI: 20.9 µM
CAKI-1 renal
  TGI: 24.6 µM
MALME-3M melanoma
  TGI: 8.27 µM
KM12 colon
  TGI: 21.2 µM
PC-3 prostate
  TGI: 17.7 µM
T-47D breast
  TGI: 7.21 µM
SNB-19 CNS
  TGI: 27.3 µM
NCI/ADR-RES ovarian
  TGI: 19.8 µM
786-0 renal
  TGI: 18 µM
SF-268 CNS
  TGI: 22.4 µM
UO-31 renal
  TGI: 24.7 µM
NCI-H522 lung
  TGI: 21.2 µM
BT-549 breast
  TGI: 24 µM
OVCAR-5 ovarian
  TGI: 23.5 µM
SN12C renal
  TGI: 22.1 µM
HT29 colon
  TGI: 15.5 µM
LOX IMVI melanoma
  TGI: 19.2 µM
NCI-H460 lung
  TGI: 17.3 µM
SK-MEL-28 melanoma
  TGI: 9.09 µM
A549 NSCLC
  TGI: 26.6 µM
SK-MEL-5 melanoma
  TGI: 3.39 µM
HCT-15 colon
  TGI: 16.8 µM
HOP-92 NSCLC
  TGI: 26.7 µM
UACC-62 melanoma
  TGI: 23.1 µM
MOLT-4 leukemia
  TGI: 12.5 µM
SF-539 CNS
  TGI: 5.12 µM

## O=C(c1cccs1)N(C(=S)OCc1ccccn1)c1ccccc1
HL-60(TB) leukemia
  TGI: > 100 µM
NCI-H226 lung
  TGI: > 100 µM
EKVX NSCLC
  TGI: 70 µM
CCRF-CEM leukemia
  TGI: > 100 µM
DU-145 prostate
  TGI: > 100 µM
IGROV1 ovarian
  TGI: > 100 µM
A498 renal
  TGI: > 100 µM
ACHN renal
  TGI: > 100 µM
RPMI-8226 leukemia
  TGI: > 100 µM
COLO 205 colon
  TGI: > 100 µM
HCT-116 colon
  TGI: > 100 µM
UACC-257 melanoma
  TGI: > 100 µM
SK-MEL-2 melanoma
  TGI: > 100 µM
MDA-N
  TGI: > 100 µM
MDA-MB-435
  TGI: > 100 µM
OVCAR-8 ovarian
  TGI: > 100 µM
M14 melanoma
  TGI: > 100 µM
U251 CNS
  TGI: > 100 µM
OVCAR-3 ovarian
  TGI: > 100 µM
NCI-H23 lung
  TGI: > 100 µM
SW-620 colon
  TGI: > 100 µM
TK-10 renal
  TGI: > 100 µM
MDA-MB-231 breast
  TGI: > 100 µM
HS 578T breast
  TGI: > 100 µM
SK-OV-3 ovarian
  TGI: > 100 µM
MCF7 breast
  TGI: > 100 µM
SF-295 CNS
  TGI: > 100 µM
CAKI-1 renal
  TGI: > 100 µM
MALME-3M melanoma
  TGI: 44 µM
SR leukemia
  TGI: > 100 µM
KM12 colon
  TGI: > 100 µM
PC-3 prostate
  TGI: > 100 µM
T-47D breast
  TGI: > 100 µM
SNB-19 CNS
  TGI: > 100 µM
NCI/ADR-RES ovarian
  TGI: > 100 µM
786-0 renal
  TGI: > 100 µM
SF-268 CNS
  TGI: > 100 µM
UO-31 renal
  TGI: 96.7 µM
K-562 leukemia
  TGI: > 100 µM
BT-549 breast
  TGI: > 100 µM
OVCAR-5 ovarian
  TGI: > 100 µM
SN12C renal
  TGI: > 100 µM
HT29 colon
  TGI: > 100 µM
LOX IMVI melanoma
  TGI: > 100 µM
NCI-H460 lung
  TGI: > 100 µM
SK-MEL-28 melanoma
  TGI: > 100 µM
SK-MEL-5 melanoma
  TGI: > 100 µM
HCT-15 colon
  TGI: > 100 µM
RXF 393 renal
  TGI: > 100 µM
UACC-62 melanoma
  TGI: > 100 µM
MOLT-4 leukemia
  TGI: > 100 µM
SF-539 CNS
  TGI: > 100 µM
